Columns and labels:
Test in all cases: KINOMEscan
Assay type in all cases: binding
ABL2 = molecular target: T1, ABL2 (Homo sapiens, UniProt P42684); details: read-out: % control activity remaining
T1 construct: purchased Eurofins DiscoverX KINOMEscan

ACVRL1 = molecular target: T2, ACVRL1 (Homo sapiens, UniProt P37023); details: read-out: % control activity remaining
T2 construct: purchased Eurofins DiscoverX KINOMEscan

CAMK2B = molecular target: T3, CAMK2B (Homo sapiens, UniProt Q13554); details: read-out: % control activity remaining
T3 construct: purchased Eurofins DiscoverX KINOMEscan
T3 sequence (Q13554 whole entry): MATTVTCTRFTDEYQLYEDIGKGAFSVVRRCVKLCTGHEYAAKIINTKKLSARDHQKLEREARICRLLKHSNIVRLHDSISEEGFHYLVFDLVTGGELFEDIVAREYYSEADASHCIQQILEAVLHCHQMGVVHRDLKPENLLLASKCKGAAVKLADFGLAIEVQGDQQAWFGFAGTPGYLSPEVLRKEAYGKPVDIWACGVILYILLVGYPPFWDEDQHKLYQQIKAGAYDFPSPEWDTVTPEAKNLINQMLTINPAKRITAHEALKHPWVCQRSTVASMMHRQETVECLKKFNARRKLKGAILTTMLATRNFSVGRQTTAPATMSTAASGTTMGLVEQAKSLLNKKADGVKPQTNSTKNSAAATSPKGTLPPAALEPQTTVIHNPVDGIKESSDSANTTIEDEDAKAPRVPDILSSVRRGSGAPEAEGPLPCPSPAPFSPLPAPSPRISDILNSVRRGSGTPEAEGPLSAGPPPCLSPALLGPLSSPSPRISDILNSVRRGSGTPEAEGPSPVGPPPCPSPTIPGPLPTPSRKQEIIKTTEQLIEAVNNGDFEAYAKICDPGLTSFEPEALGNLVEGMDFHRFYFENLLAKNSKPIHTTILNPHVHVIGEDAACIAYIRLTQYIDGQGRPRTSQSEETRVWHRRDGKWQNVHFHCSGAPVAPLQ

DCAMKL3 = molecular target: T4, DCAMKL3 (Homo sapiens, UniProt Q9C098); details: read-out: % control activity remaining
T4 construct: purchased Eurofins DiscoverX KINOMEscan
T4 sequence (Q9C098 1-648): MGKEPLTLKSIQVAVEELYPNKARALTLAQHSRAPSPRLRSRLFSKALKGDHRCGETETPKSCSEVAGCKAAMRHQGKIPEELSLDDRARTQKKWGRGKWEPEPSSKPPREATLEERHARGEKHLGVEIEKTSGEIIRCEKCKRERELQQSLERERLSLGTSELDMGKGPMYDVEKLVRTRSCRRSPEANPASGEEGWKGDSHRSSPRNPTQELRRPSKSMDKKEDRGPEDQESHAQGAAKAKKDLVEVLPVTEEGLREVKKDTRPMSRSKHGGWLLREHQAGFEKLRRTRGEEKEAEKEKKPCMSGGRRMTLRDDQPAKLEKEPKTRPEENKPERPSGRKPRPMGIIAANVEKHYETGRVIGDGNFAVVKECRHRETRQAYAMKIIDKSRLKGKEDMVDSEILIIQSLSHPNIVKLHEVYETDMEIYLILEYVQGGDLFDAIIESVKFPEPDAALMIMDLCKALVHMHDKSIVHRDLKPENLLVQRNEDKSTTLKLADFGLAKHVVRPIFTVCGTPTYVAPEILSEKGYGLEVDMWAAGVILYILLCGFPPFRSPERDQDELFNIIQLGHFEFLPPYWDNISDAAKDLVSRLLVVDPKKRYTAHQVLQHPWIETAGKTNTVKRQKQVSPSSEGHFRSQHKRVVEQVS

LOK = molecular target: T5, LOK (Homo sapiens, UniProt O94804); details: read-out: % control activity remaining
T5 construct: purchased Eurofins DiscoverX KINOMEscan
T5 sequence (O94804 whole entry): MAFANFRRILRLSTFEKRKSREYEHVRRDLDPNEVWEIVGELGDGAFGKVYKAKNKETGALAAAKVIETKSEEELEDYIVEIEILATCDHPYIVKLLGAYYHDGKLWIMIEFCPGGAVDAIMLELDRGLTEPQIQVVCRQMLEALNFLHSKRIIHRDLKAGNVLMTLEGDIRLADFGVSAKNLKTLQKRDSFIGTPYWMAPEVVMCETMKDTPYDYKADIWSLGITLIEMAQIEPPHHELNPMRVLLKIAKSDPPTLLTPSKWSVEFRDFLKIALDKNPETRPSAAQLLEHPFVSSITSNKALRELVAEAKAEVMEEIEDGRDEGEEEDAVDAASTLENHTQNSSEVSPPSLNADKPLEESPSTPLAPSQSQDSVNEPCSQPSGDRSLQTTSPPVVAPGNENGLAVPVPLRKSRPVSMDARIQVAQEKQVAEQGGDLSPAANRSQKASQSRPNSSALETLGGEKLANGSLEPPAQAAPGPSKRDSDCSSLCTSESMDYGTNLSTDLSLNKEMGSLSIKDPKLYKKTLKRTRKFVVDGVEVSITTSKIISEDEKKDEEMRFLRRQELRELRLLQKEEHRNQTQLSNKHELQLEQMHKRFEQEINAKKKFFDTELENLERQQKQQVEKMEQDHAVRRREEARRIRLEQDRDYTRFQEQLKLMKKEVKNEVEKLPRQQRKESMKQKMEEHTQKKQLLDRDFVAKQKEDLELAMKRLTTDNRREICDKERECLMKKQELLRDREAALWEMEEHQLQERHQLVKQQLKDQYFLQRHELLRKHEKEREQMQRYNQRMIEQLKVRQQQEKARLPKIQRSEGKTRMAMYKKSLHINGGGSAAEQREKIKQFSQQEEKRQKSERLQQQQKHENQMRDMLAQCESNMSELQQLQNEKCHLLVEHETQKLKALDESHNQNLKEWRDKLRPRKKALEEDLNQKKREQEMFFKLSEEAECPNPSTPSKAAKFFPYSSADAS

PDPK1 = molecular target: T6, PDPK1 (Homo sapiens, UniProt O15530); details: read-out: % control activity remaining
T6 construct: purchased Eurofins DiscoverX KINOMEscan
T6 sequence (O15530 1-556): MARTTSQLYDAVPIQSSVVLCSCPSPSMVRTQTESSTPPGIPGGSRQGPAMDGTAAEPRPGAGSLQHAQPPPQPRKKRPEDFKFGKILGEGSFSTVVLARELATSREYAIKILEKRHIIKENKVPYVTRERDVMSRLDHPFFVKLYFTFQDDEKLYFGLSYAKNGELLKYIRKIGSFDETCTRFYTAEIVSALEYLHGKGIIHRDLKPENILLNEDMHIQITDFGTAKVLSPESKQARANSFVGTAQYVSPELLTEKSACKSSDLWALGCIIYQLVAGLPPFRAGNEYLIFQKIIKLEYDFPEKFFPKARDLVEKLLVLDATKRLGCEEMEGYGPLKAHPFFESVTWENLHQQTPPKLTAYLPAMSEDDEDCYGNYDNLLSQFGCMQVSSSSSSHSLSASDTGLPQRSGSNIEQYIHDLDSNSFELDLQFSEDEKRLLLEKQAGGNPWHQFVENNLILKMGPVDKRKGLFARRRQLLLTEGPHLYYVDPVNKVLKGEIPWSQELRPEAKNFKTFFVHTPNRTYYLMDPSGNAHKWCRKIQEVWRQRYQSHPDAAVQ

PIK4CB = molecular target: T7, PIK4CB (Homo sapiens, UniProt Q9UBF8); details: for remaining binding at 1 µM: read-out: % control activity remaining
T7 construct: purchased Eurofins DiscoverX KINOMEscan
T7 sequence (Q9UBF8 whole entry): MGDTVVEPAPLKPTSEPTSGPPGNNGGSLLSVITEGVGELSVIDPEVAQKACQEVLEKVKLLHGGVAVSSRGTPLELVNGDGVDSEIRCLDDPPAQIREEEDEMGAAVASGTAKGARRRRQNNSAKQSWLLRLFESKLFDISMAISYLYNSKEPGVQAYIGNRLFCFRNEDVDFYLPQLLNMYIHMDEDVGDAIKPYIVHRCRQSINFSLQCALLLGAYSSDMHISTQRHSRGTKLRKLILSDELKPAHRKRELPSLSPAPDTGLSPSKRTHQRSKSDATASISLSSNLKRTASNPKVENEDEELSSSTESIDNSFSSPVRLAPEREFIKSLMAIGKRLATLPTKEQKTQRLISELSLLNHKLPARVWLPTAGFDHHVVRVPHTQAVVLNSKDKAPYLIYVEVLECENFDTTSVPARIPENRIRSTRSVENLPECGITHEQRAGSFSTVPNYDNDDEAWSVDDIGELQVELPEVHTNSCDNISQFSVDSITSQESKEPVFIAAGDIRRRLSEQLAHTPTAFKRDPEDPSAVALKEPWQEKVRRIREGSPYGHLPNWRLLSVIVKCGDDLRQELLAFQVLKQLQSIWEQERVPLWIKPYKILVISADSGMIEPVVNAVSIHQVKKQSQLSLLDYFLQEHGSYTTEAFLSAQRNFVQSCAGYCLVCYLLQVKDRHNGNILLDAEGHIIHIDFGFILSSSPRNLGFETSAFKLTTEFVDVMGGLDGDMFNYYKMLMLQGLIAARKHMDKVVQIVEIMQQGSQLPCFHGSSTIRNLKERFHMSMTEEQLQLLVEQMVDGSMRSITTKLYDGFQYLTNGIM

PRKD3 = molecular target: T8, PRKD3 (Homo sapiens, UniProt O94806); details: read-out: % control activity remaining
T8 construct: purchased Eurofins DiscoverX KINOMEscan
T8 sequence (O94806 1-890): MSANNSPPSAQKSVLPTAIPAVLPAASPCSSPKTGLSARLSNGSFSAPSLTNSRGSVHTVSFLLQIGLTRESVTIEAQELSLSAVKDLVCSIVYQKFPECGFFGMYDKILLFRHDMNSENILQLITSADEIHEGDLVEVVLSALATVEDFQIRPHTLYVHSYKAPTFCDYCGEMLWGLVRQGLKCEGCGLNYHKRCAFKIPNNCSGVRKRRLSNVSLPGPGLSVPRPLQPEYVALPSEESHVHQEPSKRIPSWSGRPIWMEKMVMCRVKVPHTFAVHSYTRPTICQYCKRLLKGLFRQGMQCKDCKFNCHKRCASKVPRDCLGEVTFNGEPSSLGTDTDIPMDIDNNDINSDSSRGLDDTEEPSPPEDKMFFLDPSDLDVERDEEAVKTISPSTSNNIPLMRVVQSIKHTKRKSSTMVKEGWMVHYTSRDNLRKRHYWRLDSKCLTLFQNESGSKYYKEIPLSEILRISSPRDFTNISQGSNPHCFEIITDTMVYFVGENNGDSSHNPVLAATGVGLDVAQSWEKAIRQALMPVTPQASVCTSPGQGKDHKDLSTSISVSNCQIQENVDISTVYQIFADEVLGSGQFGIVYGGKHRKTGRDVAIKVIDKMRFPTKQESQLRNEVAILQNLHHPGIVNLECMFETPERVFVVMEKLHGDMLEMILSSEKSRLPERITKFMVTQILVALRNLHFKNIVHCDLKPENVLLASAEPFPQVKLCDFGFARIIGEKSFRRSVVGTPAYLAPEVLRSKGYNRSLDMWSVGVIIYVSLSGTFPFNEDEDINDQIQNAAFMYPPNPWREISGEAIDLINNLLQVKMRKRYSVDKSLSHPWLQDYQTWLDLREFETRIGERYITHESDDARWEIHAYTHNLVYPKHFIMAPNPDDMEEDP

SIK2 = molecular target: T9, SIK2 (Homo sapiens, UniProt Q9H0K1); details: read-out: % control activity remaining
T9 construct: purchased Eurofins DiscoverX KINOMEscan

TESK1 = molecular target: T10, TESK1 (Homo sapiens, UniProt Q15569); details: read-out: % control activity remaining
T10 construct: purchased Eurofins DiscoverX KINOMEscan
T10 sequence (Q15569 whole entry): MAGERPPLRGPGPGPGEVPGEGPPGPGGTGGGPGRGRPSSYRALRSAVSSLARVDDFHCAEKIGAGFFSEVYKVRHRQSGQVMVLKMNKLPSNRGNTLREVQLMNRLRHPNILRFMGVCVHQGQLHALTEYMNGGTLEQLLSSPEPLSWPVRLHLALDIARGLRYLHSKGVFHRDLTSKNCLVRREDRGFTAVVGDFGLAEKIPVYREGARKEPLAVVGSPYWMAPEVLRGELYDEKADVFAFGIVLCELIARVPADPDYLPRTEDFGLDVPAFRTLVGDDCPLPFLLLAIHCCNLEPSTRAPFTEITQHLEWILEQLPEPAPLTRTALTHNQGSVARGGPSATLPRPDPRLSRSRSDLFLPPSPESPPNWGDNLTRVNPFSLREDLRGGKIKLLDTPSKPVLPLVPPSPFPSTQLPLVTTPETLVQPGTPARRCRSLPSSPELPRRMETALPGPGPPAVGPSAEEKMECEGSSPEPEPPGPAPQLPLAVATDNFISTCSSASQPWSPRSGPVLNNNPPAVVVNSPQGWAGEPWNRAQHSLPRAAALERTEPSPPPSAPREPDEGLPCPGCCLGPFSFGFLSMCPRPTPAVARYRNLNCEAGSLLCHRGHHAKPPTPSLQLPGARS

T2 sequence (P37023 22-503): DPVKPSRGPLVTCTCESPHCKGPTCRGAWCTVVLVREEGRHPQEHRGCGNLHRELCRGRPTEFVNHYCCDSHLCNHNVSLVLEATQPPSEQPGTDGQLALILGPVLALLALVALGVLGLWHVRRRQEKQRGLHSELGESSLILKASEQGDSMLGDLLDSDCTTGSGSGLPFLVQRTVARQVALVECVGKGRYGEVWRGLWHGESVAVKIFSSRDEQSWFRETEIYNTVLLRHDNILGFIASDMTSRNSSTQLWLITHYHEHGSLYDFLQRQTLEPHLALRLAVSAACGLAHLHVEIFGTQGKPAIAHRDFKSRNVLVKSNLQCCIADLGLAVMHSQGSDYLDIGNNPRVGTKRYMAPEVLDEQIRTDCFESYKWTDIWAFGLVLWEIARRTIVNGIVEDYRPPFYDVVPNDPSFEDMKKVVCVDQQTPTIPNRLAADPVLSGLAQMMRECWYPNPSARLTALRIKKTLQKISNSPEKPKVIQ
T1 sequence (P42684 whole entry): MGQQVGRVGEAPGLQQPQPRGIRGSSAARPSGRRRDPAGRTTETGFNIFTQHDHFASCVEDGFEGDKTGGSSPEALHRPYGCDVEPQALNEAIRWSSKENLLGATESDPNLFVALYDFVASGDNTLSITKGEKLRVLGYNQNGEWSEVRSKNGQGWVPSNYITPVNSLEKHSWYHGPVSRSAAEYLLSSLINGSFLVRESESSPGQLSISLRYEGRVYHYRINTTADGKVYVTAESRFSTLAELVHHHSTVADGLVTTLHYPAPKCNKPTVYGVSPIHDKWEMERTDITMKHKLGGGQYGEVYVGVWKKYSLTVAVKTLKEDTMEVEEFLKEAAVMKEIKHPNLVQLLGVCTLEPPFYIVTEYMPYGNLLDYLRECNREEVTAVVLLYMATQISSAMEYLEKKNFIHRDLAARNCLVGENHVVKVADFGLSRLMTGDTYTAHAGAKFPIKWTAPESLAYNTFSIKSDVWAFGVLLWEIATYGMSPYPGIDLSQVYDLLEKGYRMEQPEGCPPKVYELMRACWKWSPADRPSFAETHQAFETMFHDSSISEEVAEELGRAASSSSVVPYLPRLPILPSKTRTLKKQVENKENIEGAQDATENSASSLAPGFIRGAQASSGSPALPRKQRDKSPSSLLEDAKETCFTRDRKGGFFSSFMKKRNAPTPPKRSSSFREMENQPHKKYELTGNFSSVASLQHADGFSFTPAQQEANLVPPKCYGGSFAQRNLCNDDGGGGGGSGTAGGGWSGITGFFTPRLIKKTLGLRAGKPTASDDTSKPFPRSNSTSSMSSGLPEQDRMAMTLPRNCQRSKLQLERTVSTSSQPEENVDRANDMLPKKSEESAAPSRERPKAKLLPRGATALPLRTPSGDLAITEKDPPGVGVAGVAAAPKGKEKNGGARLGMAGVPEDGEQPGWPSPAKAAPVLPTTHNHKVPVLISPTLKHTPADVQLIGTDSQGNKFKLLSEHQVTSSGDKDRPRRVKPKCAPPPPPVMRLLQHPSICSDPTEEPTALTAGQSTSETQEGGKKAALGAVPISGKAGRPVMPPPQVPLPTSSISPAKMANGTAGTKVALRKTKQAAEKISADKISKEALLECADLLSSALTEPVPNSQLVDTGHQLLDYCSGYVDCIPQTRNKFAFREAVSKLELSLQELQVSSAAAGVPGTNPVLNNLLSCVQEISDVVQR

Row | Structure (SMILES) | remaining binding at 1 µM (ABL2) [%] | remaining binding at 1 µM (ACVRL1) [%] | remaining binding at 1 µM (CAMK2B) [%] | remaining binding at 1 µM (DCAMKL3) [%] | remaining binding at 1 µM (LOK) [%] | remaining binding at 1 µM (PDPK1) [%] | remaining binding at 1 µM (PIK4CB) [%] | remaining binding at 1 µM (PRKD3) [%] | remaining binding at 1 µM (SIK2) [%] | remaining binding at 1 µM (TESK1) [%] | inhibition at 1 µM (PIK4CB; read-out: Probe binding inhibited) [%]
1 | CN1CCC(CNc2cc(Cl)nn3c(-c4cc5nc(Nc6ccccc6)[nH]c5cc4F)cnc23)CC1 [compound 31, 6-Chloro-3-(6-fluoro-2-(phenylamino)-1H-benzo[d]imidazol-5-yl)-N-((1-methylpiperidin-4-yl)methyl)imidazo[1,2-b]pyridazin-8-amine] | 92 | 100 | 100 | 100 | 91 | 100 | 73 | 100 | 100 | 100 | 
2 | O=C(CN1CCOCC1)N[C@H]1CC[C@H](Nc2cc(Cl)nn3c(-c4ccc5[nH]ncc5c4)cnc23)CC1 [compound 26] | 56 | 100 | 69 | 100 | 100 | 100 | 21 | 94 | 97 | 91 | 
3 | Clc1cc(NCC2CC2)c2ncc(-c3ccc4[nH]ncc4c3)n2n1 [compound 2, 6-Chloro-N-(cyclopropylmethyl)-3-(1H-indazol-5-yl)imidazo[1,2-b]pyridazin-8-amine] | 100 | 98 | 90 | 100 | 100 | 88 | 3.3 | 98 | 73 | 92 | > 90

Source: article PMC6437697 (Journal of Medicinal Chemistry, 2019)
